Reference: paper PMC4861463, “A Molecular Switch Abrogates Glycoprotein 100 (gp100) T-cell Receptor (TCR) Targeting of a Human Melanoma Antigen” (The Journal of Biological Chemistry, 2016)
pKd: −log10 of the molar value. Entries after “also recorded” stand apart in the source; their conditions may differ.

Columns and labels:
[1] = tested on: gp100-specific TCR-transfected human T-cells; conditions: cited from earlier work
From the text: Thus, in order to study the individual contribution of the peptide residues invo ... || We also provide insight into the role of each residue in gp100^280–288 during TCR recognition by performing an alanine scan mutagenesis with two different gp100^280–288-specific αβTCRs. […] These observations are consisten ...

[2] = target: PMEL17 TCR (TRAV21 TRBV7-3); assay: SPR affinity analysis of PMEL17 TCR binding to HLA-A*0201-peptide complexes; parameters: species or system Human; conditions: SPR equilibrium analysis, triplicate; for PMEL17 TCR (TRAV21 TRBV7-3), affinity KD: biotinylated HLA-A*0201-peptide complex (500–600 RU) on streptavidin CM5 chip, 9–10 serial dilutions of soluble TCR
[3] = tested on: gp100 TCR-transduced CD8+ T-cells; assay: MIP-1β production by ELISA after stimulation with peptide-pulsed T2 target cells; type: cell-based, Human; conditions: peptide titration; 6 × 10^4 T2 cells pulsed 1 h + 3 × 10^4 T-cells, overnight; ELISA of supernatant; duplicate; Fig. 6A
[4] = target: gp100 TCR (TRAV17 TRBV19); assay: SPR affinity analysis of gp100 TCR binding to HLA-A*0201-peptide complexes; parameters: species or system Human; conditions: SPR equilibrium analysis, triplicate; for gp100 TCR (TRAV17 TRBV19), affinity KD: biotinylated HLA-A*0201-peptide complex (500–600 RU) on streptavidin CM5 chip, 9–10 serial dilutions of soluble TCR
[5] = tested on: gp100 TCR-transduced CD8+ T-cells; assay: 4-h 51Cr release cytotoxicity assay against peptide-pulsed T2 targets; type: cell-based, Human; conditions: 37 °C, effector/target ratio 5, 51Cr-labelled T2 cells, peptide titration, duplicate, Fig. 6B

PMEL17 TCR (TRAV21 TRBV7-3), affinity KD ([2]; listed as A2-YLE-3A) | gp100 TCR (TRAV17 TRBV19), affinity KD [4] | gp100 TCR (TRAV17 TRBV19), affinity KD ([4]; listed as A2-YLE-3A) | pKd ([2]; read-out: PMEL17 TCR (TRAV21 TRBV7-3), affinity KD, biotinylated HLA-A*0201-peptide complex on streptavidin CM5 chip) | pKd ([4]; read-out: gp100 TCR (TRAV17 TRBV19), affinity KD, biotinylated HLA-A*0201-peptide complex on streptavidin CM5 chip) | Sequence | agonist activity for a different gp100-specific TCR [1] | PMEL17 TCR (TRAV21 TRBV7-3), affinity KD [2] | MIP-1β production [3] | specific lysis of peptide-pulsed target cells [5]
completely abrogated binding | No binding | completely abrogated binding |  |  | YLAPGPVTA [YLE-3A] | null agonist | complete absence of measurable binding; also recorded: No binding | No MIP-1β production | no cytotoxic T lymphocyte-mediated lysis
 |  |  | < 3.00 | < 3.00 | YLEPAPVTA [YLE-5A] |  |  | No MIP-1β production | no cytotoxic T lymphocyte-mediated lysis
